Source: BindingDB's records for doi:10.7270/Q2251GJ9 (The Scripps Research Institute Molecular Screening Center, 2007)
pEC50: −log10 of the molar value. Where a name gives a salt, the structure may show the parent alone.

target: Sphingosine 1-phosphate receptor 1 (Homo sapiens, UniProt P21453); assay: direct activation of human S1P1 – cell-based, agonist mode, 60K MLSMR set, dose response (AID 468); details: not given
Sequence (P21453 whole entry): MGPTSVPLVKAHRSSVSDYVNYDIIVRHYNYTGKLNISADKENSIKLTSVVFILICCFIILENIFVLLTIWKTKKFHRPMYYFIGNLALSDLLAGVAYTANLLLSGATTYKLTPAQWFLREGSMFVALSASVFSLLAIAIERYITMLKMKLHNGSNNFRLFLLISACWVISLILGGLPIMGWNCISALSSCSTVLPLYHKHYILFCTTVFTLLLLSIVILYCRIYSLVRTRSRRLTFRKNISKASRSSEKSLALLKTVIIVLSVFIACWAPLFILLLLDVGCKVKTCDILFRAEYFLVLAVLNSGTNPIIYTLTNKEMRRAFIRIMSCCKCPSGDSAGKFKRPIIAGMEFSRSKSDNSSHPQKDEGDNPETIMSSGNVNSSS

First: CC(=O)Oc1ccc(-n2c(O)c3c(c2O)C2(C)C=CC3(C)O2)cc1 [MLS000107813]
Second: COC(=O)c1c(C)n(-c2ccc(OC)cc2)c2ccc(O)cc12 [5-hydroxy-1-(4-methoxyphenyl)-2-methyl-3-indolecarboxylic acid methyl ester]
The pEC50 of the first is 0.27 log units lower: 4.93 for the first, 5.20 for the second.

COc1ccccc1-n1nnnc1S(=O)(=O)Cc1ccc(Cl)cc1 [5-(4-chlorobenzyl)sulfonyl-1-(2-methoxyphenyl)tetrazole] and CCOc1ccc(C(=O)Nc2c(C(N)=O)oc3ccccc23)cc1 [3-[(4-ethoxybenzoyl)amino]-1-benzofuran-2-carboxamide] are within 0.2 log units of each other in pEC50: 5.44 for the first, 5.39 for the second.

Going from O=C(Nc1ncc(Br)s1)C(Cc1ccccc1)n1cccc1 (configuration not stated) [MLS000119027] to CCOc1cc(C2NCc3ccccc3-n3cccc32)ccc1O (configuration not stated) [4-(5,6-dihydro-4H-pyrrolo[1,2-a][1,4]benzodiazepin-4-yl)-2-ethoxy-phenol;hydrochloride], the pEC50 falls from 5.65 to 4.79 (0.86 log units). The first is the more potent here.

Going from Cc1cc(N2CCN(C/C=C/c3ccccc3)CC2)n2ncnc2n1 [5-Methyl-7-[4-((E)-3-phenyl-allyl)-piperazin-1-yl]-[1,2,4]triazolo[1,5-a]pyrimidine] to Cc1cc(C=Nn2cnnc2)c(C)n1-c1ccc(OCc2ccccc2F)cc1 [MLS000112180], the pEC50 rises from under 4.52 to 5.96. The second is the more potent here.

Compared with N#Cc1ccc(NC(=O)Nc2ccc(Cl)cc2)cc1 [1-(4-chlorophenyl)-3-(4-cyanophenyl)urea], O=C(Nc1ccc(O)cc1)c1cc2n(n1)C(C(F)(F)F)CC(c1ccco1)N2 (configuration not stated) [5-(2-furanyl)-N-(4-hydroxyphenyl)-7-(trifluoromethyl)-1,5,6,7-tetrahydropyrazolo[1,5-a]pyrimidine-2-carboxamide] is 0.41 log units higher in pEC50: 5.03 for the first, 5.44 for the second. The second is the more potent here.

First: Cc1ccc2c(c1)N(CC(=O)Nc1ccc3c(c1)OCCO3)C(=O)CO2 [MLS000074457]
Second: CCC(C)c1ccc2oc(-c3ccc(NC(=O)Cn4cnc5c(=O)n(C)c(=O)n(C)c54)cc3)nc2c1 (configuration not stated) [2-(2,6-diketo-1,3-dimethyl-purin-9-yl)-N-[4-(5-sec-butyl-1,3-benzoxazol-2-yl)phenyl]acetamide]
The pEC50 of the first is lower: under 4.02 for the first, 5.70 for the second. The second is the more potent here.

CCOC(=O)c1cccc2c1-c1ccccc1C2N=O (configuration not stated) [9-hydroximinofluorene-4-carboxylic acid ethyl ester] and COc1ccc(-c2cn3c(C)c(C(=O)Nc4ccncc4)sc3n2)cc1 [6-(4-methoxyphenyl)-3-methyl-N-(4-pyridyl)imidazo[2,1-b]thiazole-2-carboxamide] cannot be ordered by pEC50: 4.89 for the first, under 5.00 for the second.

First: Cc1ccc(-c2n[nH]c(=S)n2C)cc1
Second: CC(C)c1ccc2oc(-c3cc(N)ccc3O)nc2c1 [(6E)-4-amino-6-(5-isopropyl-3H-1,3-benzoxazol-2-ylidene)cyclohexa-2,4-dien-1-one]
The pEC50 of the first is lower: under 4.02 for the first, 5.03 for the second.

CCCc1cc(C(=O)Nc2sc3c(c2C#N)CCC3)no1 [MLS000116386] was tested, and the pEC50 was under 4.02.

same assay, conditions: inactive by the depositor's call

CCCCOc1ccc(S(=O)(=O)n2c(C)nc3ccccc32)cc1 [1-(4-butoxyphenyl)sulfonyl-2-methyl-benzimidazole] and CCCCCn1c(=O)c(C(=O)NCc2ccncc2)c(O)c2ccccc21 [1-amyl-2-hydroxy-4-keto-N-(4-pyridylmethyl)quinoline-3-carboxamide] are within 0.2 log units of each other in pEC50: 4.64 for the first, 4.70 for the second.

CCOC(=O)c1ccc2nc(NC(=O)c3ccco3)sc2c1 [2-(2-furoylamino)-1,3-benzothiazole-6-carboxylic acid ethyl ester] and Cc1cccc(OCCCCc2c(C)n[nH]c2C)c1 [SMR000103102] are within 0.2 log units of each other in pEC50: 4.79 for the first, 4.94 for the second.

Work on COc1ccc(S(=O)(=O)Cc2ccc(C(=O)N3CCN(c4ccc(Cl)cc4)CC3)o2)cc1 [MLS000120227] yielded a pEC50 of 4.86.
